For one data set, the target named is T1, ScBor1p (Saccharomyces cerevisiae, UniProt P53838).
T1 construct: gene BOR1; full length, C-terminal deca-histidine tag, pRS423-derived plasmid, GAL1 promoter, expressed in S. cerevisiae BTSY2 (bor1 deletion)
T1 sequence (P53838 1-576): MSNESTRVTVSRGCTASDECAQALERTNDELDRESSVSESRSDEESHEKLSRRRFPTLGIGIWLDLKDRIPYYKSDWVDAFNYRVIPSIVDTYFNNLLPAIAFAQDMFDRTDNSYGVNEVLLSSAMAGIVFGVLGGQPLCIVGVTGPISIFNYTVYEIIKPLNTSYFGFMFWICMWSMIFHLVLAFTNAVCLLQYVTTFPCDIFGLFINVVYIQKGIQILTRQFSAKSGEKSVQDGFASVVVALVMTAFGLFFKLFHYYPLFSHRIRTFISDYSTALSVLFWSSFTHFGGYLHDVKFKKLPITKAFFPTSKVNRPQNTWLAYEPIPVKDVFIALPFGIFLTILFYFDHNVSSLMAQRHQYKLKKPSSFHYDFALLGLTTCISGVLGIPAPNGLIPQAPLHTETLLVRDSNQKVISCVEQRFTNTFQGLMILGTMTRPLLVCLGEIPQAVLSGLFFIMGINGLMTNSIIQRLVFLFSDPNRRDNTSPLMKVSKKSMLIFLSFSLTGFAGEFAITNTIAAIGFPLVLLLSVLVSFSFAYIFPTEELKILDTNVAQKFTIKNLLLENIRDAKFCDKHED
The data set can be described thus: curcumin spectrophotometric quantification of intracellular borate (efflux) in yeast lysates. It is filed as cell-based. To be noted: 1 mM boric acid for 90 min.

Data set [1] concerns the molecule itself. Kind of data set: cross-linking; purified ScBor1p reconstituted into PC (16:0/18:1) proteoliposomes, 1:20 protein:lipid (w:w), detergent removed with Bio-beads; 0.15% glutaraldehyde, 5 min, room temperature; 20 mM Mes pH 6.5, 100 mM NaCl, 2% glycerol; control with 5 min pre-treatment with 2% SDS.

As for `OB(O)O` [borate], the “curcumin spectrophotometric quantification of intracellular borate (efflux) in y” value at ScBor1p was “Quantification of borate efflux activity in yeast cells expressing each indicated protein”.

B1: S. cerevisiae borate transporter Bor1p (natural protein, UniProt P53838 1-576, looked up)
chain: T1 sequence (P53838 1-576)
notes: Borate transporter Bor1p of S. cerevisiae, wild type; Membrane protein; Monomer-dimer equilibrium; dimer promoted by lipids; also called ScBor1p; source: reconstituted into PC or PG proteoliposomes
Take B1: the binding result in data set [1] is listed as “binds”.

For the origin of these results see article PMC9959716, “Borate Transporters and SLC4 Bicarbonate Transporters Share Key Functional Properties” (Membranes, 2023).
